Results: publication PMC9266460, “KSK-74: Dual Histamine H3 and Sigma-2 Receptor Ligand with Anti-Obesity Potential” (International Journal of Molecular Sciences, 2022)

Tests used:
[1] = system: rats fed a palatable diet; settings: cited from earlier work; for inhibition of weight gain: model of excessive eating
[2] = system: obese animal after olanzapine treatment; set-up: method as in PMID 11985350, PMID 22695490; settings: cited from earlier work
obese adults = system: obese adults; set-up: method as in earlier work; settings: cited from earlier work
mice fed a high-fat diet = system: mice fed a high-fat diet; set-up: method as in PMID 15447739; settings: highest dose; cited from earlier work
[3] = set-up: method as in PMID 15447739; settings: cited from earlier work
sigma-1 receptor = molecular target: sigma-1 receptor; set-up: method as in PMID 34908391; settings: Figure 1; read-out: σ1R Ki; cited from earlier work
sigma-2 receptor = molecular target: sigma-2 receptor; set-up: method as in PMID 34908391; settings: Figure 1; read-out: σ2R Ki; cited from earlier work
H3R = molecular target: T1, H3R (Homo sapiens, UniProt Q9Y5N1); assay: Affinity at the H3R (literature values); format: binding; settings: H3R Ki relative to sigma-2 Ki
T1 construct: the Aequoscreen line co-expresses apoaequorin

induced obesity in mice = system: induced obesity in mice; set-up: method as in PMID 29802412; settings: i.p. 10 mg/kg b.w. for 14 days; cited from earlier work
[4] = system: peritoneal adipose tissue; assay: Leptin, resistin, IL-6 and MCP-1 levels in adipose tissue (ELISA); format: in vivo, female Wistar rats; settings: KSK 10 mg/kg i.p., phentermine 7 mg/kg
Experimental: The frozen peritoneal adipose tissue was weighed, and homogenates were prepared by homogenizing 1 g of tissue in 4 mL of 0.1 M phosphate buffer, pH 7.4, using the IKA-ULTRA-TURRAX T8 homogenizer. The adipose tissue homogenates were then used for biochemical assays.
To determine the levels of leptin, resistin, IL-6, and MCP-1 in adipose tissue, the standard ELISA Kit (Cat. No E0561Ra, Cat. No E0211Ra, Cat. No E0135Ra, Cat. No E0193Ra, Bioassay Technology Laboratory, Shanghai, China) was used. To determine the levels of protein, a standard spectrophotometric test (Cat. No 1-008-B210, Biomaxima S.A. Lublin, Poland) was used.

[5] = system: rats fed a palatable diet; assay: Plasma triglyceride and corticosterone levels in the model of excessive eating; format: in vivo, female Wistar rats; settings: KSK 10 mg/kg, phentermine 7 mg/kg
Experimental: Blood was collected from the left carotid artery and then centrifuged at 600× g (15 min, 4 °C) to obtain plasma.
To determine plasma triglyceride levels, standard enzymatic and spectrophotometric tests (Cat. No 1-053-A150, Biomaxima S.A., Lublin, Poland) were used. The ELISA Kit (Item No. 501320, Cayman Chemical, Ann Arbor, MI, USA) was used to determine corticosterone levels in plasma.

[6] = system: rats fed a palatable diet; assay: Model of excessive eating: body weight, calorie intake, fat pads; format: in vivo, female Wistar rats
Experimental: Experiments were performed on female Wistar rats with an initial body weight of 140–160 g. The animals were housed in plastic cages (2 rats per cage) at a constant room temperature of 22 ± 2 °C, with a 12:12 h light/dark cycle. Water and food were available ad libitum. The randomly established experimental groups consisted of 6 rats for pharmacological studies and 3 rats for pharmacokinetic studies. All experiments were conducted in accordance with the Guide to the Care and Use of Experimental Animals, and were approved by the Jagiellonian University in Krakow Local Ethics Committee for Experiments on Animals (Permission No: 185/2017, 220/2019 and 223A/2019).
Female rats were randomly divided into several groups (n = 6) and studied for 4 weeks. The groups were as follows: standard diet + vehicle, palatable diet + vehicle, palatable diet + KSK-60 (1 mg/kg), palatable diet + KSK-60 (10 mg/kg), palatable diet + KSK-74 (1 mg/kg), palatable diet + KSK-74 (10 mg/kg), palatable diet + phentermine (7 mg/kg).
The studies for the 1 mg/kg b.w. and 10 mg/kg b.w. doses were performed at different times, so the parameters studied were compared to the respective control groups.
Rats fed a palatable diet had access to a diet consisting of milk chocolate with nuts, cheese, salted peanuts, and 7% condensed milk, and simultaneously to a standard feed (Labofeed B, Morawski Manufacturer Feed, Poland) for 4 weeks. The water was available ad libitum. Animals had access to palatable products, but also to the standard feed. Most importantly, feeding was not in any way forced, as in other models where animals were fed only a high-fat diet, or temporarily deprived of food (binge eating models). In the case of our model, rats decided themselves when, what, and how much to eat. The weight was evaluated daily. Calorie intake was evaluated three times a week. A palatable diet contained 100 g of peanuts—612 kcal; 100 mL of condensed milk—131 kcal; 100 g of milk chocolate—529 kcal; and 100 g of cheese—325 kcal. The standard diet contained 100 g of feed—280 kcal. Standard diet (fats 8%, carbohydrates 67%, proteins 25%) contained 100 g feed—280 kcal.
The palatable control group (palatable diet + vehicle) received vehicle (1% Tween 80 i.p., daily, for 4 weeks), while palatable test groups were injected i.p. with KSK-60 (1 mg or 10 mg/kg i.p, daily, for 4 weeks), KSK-74 (1 mg/kg or 10 mg/kg i.p, daily, for 4 weeks), or phentermine (7 mg/kg i.p., daily, for 4 weeks), respectively.
On the 31st day, 20 min after i.p. administration of heparin (5000 units/rat) and thiopental (70 mg/kg b.w.), animals were sacrificed, and plasma as well as peritoneal fat pads were collected (food was stopped for 6 h prior to organ, tissue, and plasma collection) for further study.

adipose tissue = assay: Histological examination of adipose tissue (Masson's trichrome); format: in vivo, female Wistar rats; settings: palatable diet
Experimental: Adipose tissue samples were prepared for histology using Masson’s trichrome stain (Merck) by fixation in 4% formaldehyde, dehydration in graded alcohol, and embedded in paraffin. The tissue samples were then sectioned using a microtome of 5 μm thickness. Six random fields from each section were analyzed in a blinded manner with an Olympus BX41 light microscope (Olympus, Tokyo, Japan) at magnifications of ×20, ×40 and ×100, and digital images were captured with an Olympus UC90 color camera. The quantitation of the number of adipocytes was performed in eight fields/slide with ×100 objective using an image analysis system: CellSensDimension (Olympus, Tokyo, Japan). The numerical density of the adipocytes was obtained by counting the total number of adipocytes per high-power field ([…]), and then this number was converted to 0.1 mm^2. According to stereometric rules, adipocytes tangent to the left and top edges of the image field were not counted. A semi-quantitative scale was used to assess the inflammatory response in adipose tissue. The following were evaluated on a subjective scale: inflammatory cell infiltration between adipocytes (0—normal, 1—few cells, 2—local clusters, and 3—extensive infiltrates), perivascular infiltration of immune cells (0—normal, 1—few cells, and 2—ring of inflammatory cells), widening of the septum (0—normal and 1—widening), and capillary congestion (0—normal and 1—congestion). A sum calculated from independently assessed values was calculated for each animal as an index of inflammation.

T1 sequence (Q9Y5N1 whole entry): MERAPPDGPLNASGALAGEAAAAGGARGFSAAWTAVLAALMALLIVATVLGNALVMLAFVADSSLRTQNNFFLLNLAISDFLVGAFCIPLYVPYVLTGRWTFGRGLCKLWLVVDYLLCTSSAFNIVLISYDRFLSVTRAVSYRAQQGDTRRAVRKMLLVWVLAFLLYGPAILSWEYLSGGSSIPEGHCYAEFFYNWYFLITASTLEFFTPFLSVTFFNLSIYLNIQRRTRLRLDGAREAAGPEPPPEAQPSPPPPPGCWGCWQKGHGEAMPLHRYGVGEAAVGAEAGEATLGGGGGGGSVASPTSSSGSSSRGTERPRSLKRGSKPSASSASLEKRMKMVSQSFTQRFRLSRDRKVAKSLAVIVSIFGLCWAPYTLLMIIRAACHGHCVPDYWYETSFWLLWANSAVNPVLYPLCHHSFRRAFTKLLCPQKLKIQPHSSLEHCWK

## CNCCc1ccccn1 [Betahistine, reference compound]
[1]; rat model of excessive eating
  high-density lipoprotein (HDL) levels, long-term administration: increases high-density lipoprotein (HDL) levels
  weight gain, long-term administration: slows weight gain
[2]
  body weight: induced significant weight loss
Obese adults
  reduction of body weight and waist circumference compared with Orlistat: did not show significant differences

## CN(C)[C@@H]1CCN(CCCOc2ccc(-c3ccc(C#N)cc3)cc2)C1 [Compound A-331440]
Mice fed a high-fat diet
  body weight: induced weight loss comparable to mice fed a low-fat diet
[3]
  reason for exclusion from clinical trials: genotoxicity

## CC(=O)c1ccc(OCCCCCCN2CCN(c3ccncc3)CC2)cc1 [KSK-59]
sigma-1 receptor
  Ki: 0.0378 µM
sigma-2 receptor
  Ki: 0.151 µM
[1]
  inhibition of weight gain: high efficacy in inhibiting weight gain

## CC(=O)c1ccc(OCCCCCCCCN2CCN(c3ccncc3)CC2)cc1 [KSK-73]
sigma-1 receptor
  Ki: 0.408 µM
sigma-2 receptor
  Ki: 0.0597 µM
[1]
  inhibition of weight gain: high efficacy in inhibiting weight gain
H3R
  affinity ratio H3/sigma-2 receptors: 0.68

## Clc1ccc(CCCOCCCN2CCCCC2)cc1 [Pitolisant]
Induced obesity in mice
  body weight and metabolic disturbances: positive influence on body weight, glucose tolerance, and lipid profile

## CC(C)(N)Cc1ccccc1 [phentermine, reference compound]
[4]
  resistin levels in adipose tissue vs palatable diet + vehicle: did not influence
[4]; vs palatable diet + vehicle unless worded otherwise
  leptin levels in adipose tissue: did not influence
[5]
  plasma triglyceride levels vs palatable diet + vehicle: lower plasma triglyceride levels
[6]; KSK 10 mg/kg, phentermine 7 mg/kg, end of experiment
  amount of peritoneal fat pads vs palatable diet + vehicle: fewer peritoneal fat pads
[6]; i.p. 28 days, KSK 10 mg/kg b.w., phentermine 7 mg/kg b.w.
  calorie intake vs control group fed palatable feed: did not significantly influence the amount of calories consumed
[6]; i.p. daily 4 weeks, KSK-60/KSK-74 10 mg/kg b.w., phentermine 7 mg/kg
  body weight gain vs palatable diet + vehicle: gained less weight
Adipose tissue; 7 mg/kg
  capillary congestion and crown-like structures in adipose tissue: marked capillary congestion and frequent appearance of crown-like structures
Adipose tissue; KSK 10 mg/kg, phentermine 7 mg/kg
  inflammatory infiltrates in adipose tissue (histological description): slightly less inflammatory infiltrates
Adipose tissue; KSK 10 mg/kg, phentermine 7 mg/kg, means ± SD, n = 6
  number of adipocytes per 0.1 mm^2 of cross-sectional area: more similar to the results of the palatable diet + vehicle group
Adipose tissue; KSK 10 mg/kg, phentermine 7 mg/kg, standard diet + vehicle 0.5 ± 0.34
  inflammatory index of the adipose tissue: 4.16 ± 0.48
Adipose tissue; n = 6 per group
  number of rats, Capillary Congestion grade 1-Congestion: 6
  number of rats, Inflammatory Cell Infiltration grade 1-Few Cells: 4
  number of rats, Inflammatory Cell Infiltration grade 2-Local Clusters: 2
  number of rats, Perivascular Infiltration grade 0-Normal: 1
  number of rats, Perivascular Infiltration grade 1-Few Cells: 4
  number of rats, Perivascular Infiltration grade 2-Ring of Cells: 1
  number of rats, Widening of the Septum grade 0-Normal: 1
  number of rats, Widening of the Septum grade 1-Widening: 5
